In patent publication US8629177B2, “Nanoencapsulated delta-9-tetrahydrocannabinol” (Aphios Corporation, priority 2010, dated 2014):
Like-named read-outs stand apart in the source and are kept apart here.

How the values were obtained:
[1] = Stability of Δ9-THC in collection buffer compositions and at different pH; format: physicochemical
Protocol: (§1) Stability Studies: Shelf stability studies were conducted with Δ9-THC, Δ9-THC polymer nanospheres and formulations of the aforementioned. The following tests were performed: (i) physical appearance; and (ii) Δ9-THC content and integrity. Statistical analysis of the data sets were performed using SYSTAT®.
The composition of the buffer was determined from stability studies with Δ9-THC at different conditions. […] Stability experiments were also conducted with Δ9-THC at pH=4, 7 and 10. […] Experiments were also used to determine that a low concentration of PVA was adequate for […] and minimizing foaming in the collection buffer. The buffer was deareated to remove dissolved oxygen since Δ9-THC is very sensitive to oxygen. A 10% sucrose buffer was utilized based on prior experimental data for this and other projects to preserve particle integrity after lyophilization. Prior to lyophilization, these products were placed in a −80° C. freezer until they were frozen solid. Samples were then lyophilized for a 24 hour period. These samples were reconstituted in distilled, degasified water and were analyzed using HPLC and particle size analysis via dynamic light scattering. After lyophilization, particle sizes of THC-19 and THC-21 were reduced to 287 and 230 nm respectively, and the recovery efficiencies were 77% and 95% respectively.

Fischer rats = details: cited from earlier work
[2] = 6-week stability of nanoencapsulated and naked Δ9-THC at 4, 25 and 40° C.; format: physicochemical; details: 4° C., 25° C. and 40° C.
Protocol: as §1
Stability studies were conducted on polymer nanoencapsulated Δ9-THC (THC-12-1) and naked Δ9-THC samples over a 6-week period at 4° C., 25° C. and 40° C.

In the case of `CCCCCc1cc(O)c2c(c1)OC(C)(C)[C@@H]1CCC(C)=C[C@@H]21` [Δ9-THC, delta-9-tetrahydrocannabinol], the “stability at pH=4, 7 and 10” value ([1]; pH 4, 7, 10 compared) is reported as “most stable at pH=4”, the “stability in 10% sucrose/0.1% PVA solution with 40% ethanol” value ([1]; six day study, 40% ethanol) is reported as “stable if 40% ethanol is introduced” and the “stability in 10% sucrose/0.1% PVA solution” value ([1]; six day study, PVA-sucrose solution without sufficient ethanol (0%, 20%, 30%)) is reported as “degrades in the PVA-sucrose solution”. The LD50 (Fischer rats; females, orally, sesame oil vehicle) was 730 mg/kg, the LD50 (Fischer rats; males, females, i.v.) was 40 mg/kg and the “LD50 corrected for particulate losses and pulmonary adsorption” value (Fischer rats; males, females, inhalation, corrected) was 42 mg/kg. For the same molecule, the LD50 (Fischer rats; males, females, inhalation) was 105.7 mg/kg, the LD50 (Fischer rats; males, orally, sesame oil vehicle) was 1,270 mg/kg and the LD50 (Fischer rats; males, orally, sesame oil, 1% polysorbate 80, saline emulsion) was 800 mg/kg. For the same molecule, the degradation by temperature ([2]; 6-week period) was “degrades almost equally at each temperature” and the “degradation after 6 weeks” value ([2]; after 6 weeks) was “most of the Δ9-THC is degraded”.
